Assay [1] addresses IniA (Mycolicibacterium smegmatis, UniProt I7FE16, K73A). Kind of assay: isothermal titration calorimetry. Format: binding. An excerpt: isothermal titration calorimetry on IniA | showing only a twofold reduction in affinity for GMPPNP or GTP | the mutant IniA largely maintained interactions with GDP
Assay [2] addresses IniA (Mycolicibacterium smegmatis, UniProt I7FE16). The assay is described as follows: isothermal titration calorimetry. Format: binding. A general note: ITC needs no label: the signal is the heat of the interaction.

Sequence of IniA (Mycolicibacterium smegmatis, UniProt I7FE16) (I7FE16 entry or part of it): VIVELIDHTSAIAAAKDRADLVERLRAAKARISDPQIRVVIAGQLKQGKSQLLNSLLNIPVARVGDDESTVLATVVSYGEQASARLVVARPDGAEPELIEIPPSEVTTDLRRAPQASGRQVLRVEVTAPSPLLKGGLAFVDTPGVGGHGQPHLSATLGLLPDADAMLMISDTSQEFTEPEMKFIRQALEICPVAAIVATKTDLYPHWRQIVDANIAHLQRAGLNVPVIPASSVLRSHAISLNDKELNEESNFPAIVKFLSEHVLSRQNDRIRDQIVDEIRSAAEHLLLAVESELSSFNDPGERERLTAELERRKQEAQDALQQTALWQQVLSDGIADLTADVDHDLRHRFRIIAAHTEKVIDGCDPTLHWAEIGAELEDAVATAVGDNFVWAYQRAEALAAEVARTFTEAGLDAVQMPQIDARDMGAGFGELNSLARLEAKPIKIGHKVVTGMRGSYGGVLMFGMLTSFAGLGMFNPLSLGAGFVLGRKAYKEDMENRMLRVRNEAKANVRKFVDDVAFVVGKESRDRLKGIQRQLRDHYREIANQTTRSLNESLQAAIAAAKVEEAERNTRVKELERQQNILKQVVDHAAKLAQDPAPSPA
Sequence of IniA (Mycolicibacterium smegmatis, UniProt I7FE16, K73A) (I7FE16 entry or part of it K73A): as the sequence (I7FE16 entry or part of it) above

On to `Nc1nc2c(ncn2[C@@H]2O[C@H](COP(=O)(O)OP(=O)(O)O)[C@@H](O)[C@H]2O)c(=O)[nH]1` [GDP], for which the Kd on IniA [1] is approximately 1060 nM; on IniA [2], 750 nM.

`Nc1nc2c(ncn2[C@@H]2O[C@H](COP(=O)(O)OP(=O)(O)NP(=O)(O)O)[C@@H](O)[C@H]2O)c(=O)[nH]1` [GMPPNP]: the Kd on IniA [1] is approximately 23200 nM; at IniA [2], 9010 nM.

Regarding `Nc1nc2c(ncn2[C@@H]2O[C@H](COP(=O)(O)OP(=O)(O)OP(=O)(O)O)[C@@H](O)[C@H]2O)c(=O)[nH]1` [GTP], the equilibrium dissociation constant (Kd) at IniA [1] is approximately 1430 nM; at IniA [2] it was 740 nM.

One may read the Kd as the free concentration of one partner at which half of the binding sites on the other are occupied at equilibrium, for simple one-to-one binding. Low readings indicate tighter binding, high ones weaker binding.

Values taken from PMC6715688, “Mycobacterial dynamin-like protein IniA mediates membrane fission” (Nature Communications, 2019).
